Key:
Format in all cases: functional
SF-539 = test: Growth inhibition of human SF539 cells assessed as cell growth at 100 uM after 48 hrs by SRB assay relative to control; conditions: SF-539, 48 h, read-out: Activity
MCF7 = test: Growth inhibition of human MCF7 cells assessed as cell growth at 0.1 uM after 48 hrs by SRB assay relative to control; conditions: MCF7, 48 h, read-out: Activity
NCI/ADR-RES = test: Growth inhibition of human NCI-ADR-RES cells assessed as cell growth at 1 uM after 48 hrs by SRB assay relative to control; conditions: read-out: Activity
HCC 2998 = test: Growth inhibition of human HCC2998 cells assessed as cell growth at 0.01 uM after 48 hrs by SRB assay relative to control; conditions: HCC 2998, 48 h, read-out: Activity
HOP-62 = test: Growth inhibition of human HOP62 cells assessed as cell growth at 100 uM after 48 hrs by SRB assay relative to control; conditions: HOP-62, 48 h, read-out: Activity
SR = test: Growth inhibition of human SR cells assessed as cell growth at 0.1 uM after 48 hrs by SRB assay relative to control; conditions: read-out: Activity
SK-OV-3 = test: Growth inhibition of human SKOV3 cells assessed as cell growth at 0.01 uM after 48 hrs by SRB assay relative to control; conditions: SK-OV-3, 48 h, read-out: Activity
MOLT-4 = test: Growth inhibition of human MOLT4 cells assessed as cell growth at 0.01 uM after 48 hrs by SRB assay relative to control; conditions: MOLT-4, 48 h, read-out: Activity
SK-MEL-2 = test: Growth inhibition of human SK-MEL-2 cells assessed as cell growth at 0.01 uM after 48 hrs by SRB assay relative to control; conditions: SK-MEL-2, 48 h, read-out: Activity
HCT-15 = test: Growth inhibition of human HCT15 cells assessed as cell growth at 1 uM after 48 hrs by SRB assay relative to control; conditions: HCT-15, 48 h, read-out: Activity
786-0 = test: Cytotoxicity against human 786-0 cells assessed as growth inhibition after 48 hrs by SRB assay; conditions: 786-0, 48 h
PC-3 = test: Growth inhibition of human PC3 cells assessed as cell growth at 0.01 uM after 48 hrs by SRB assay relative to control; conditions: PC-3, 48 h, read-out: Activity
UACC-257 = test: Growth inhibition of human UACC257 cells assessed as cell growth at 0.01 uM after 48 hrs by SRB assay relative to control; conditions: UACC-257, 48 h, read-out: Activity
M14 [1] = test: Growth inhibition of human M14 cells assessed as cell growth at 1 uM after 48 hrs by SRB assay relative to control; conditions: M14, 48 h, read-out: Activity
MDA-MB-231 = test: Growth inhibition of human MDA-MB-231/ATCC cells assessed as cell growth at 1 uM after 48 hrs by SRB assay relative to control; conditions: MDA-MB-231, 48 h, read-out: Activity
M14 [2] = test: Growth inhibition of human M14 cells assessed as cell growth at 100 uM after 48 hrs by SRB assay relative to control; conditions: M14, 48 h, read-out: Activity
SN12C = test: Growth inhibition of human SN12C cells assessed as cell growth at 10 uM after 48 hrs by SRB assay relative to control; conditions: read-out: Activity
NCI-H522 = test: Growth inhibition of human NCI-H522 cells assessed as cell growth at 0.1 uM after 48 hrs by SRB assay relative to control; conditions: NCI-H522, 48 h, read-out: Activity
ACHN [3] = test: Growth inhibition of human ACHN cells assessed as cell growth at 10 uM after 48 hrs by SRB assay relative to control; conditions: read-out: Activity
OVCAR-8 = test: Cytotoxicity against human OVCAR8 cells assessed as growth inhibition after 48 hrs by SRB assay; conditions: OVCAR-8, 48 h
SF-268 = test: Growth inhibition of human SF268 cells assessed as cell growth at 10 uM after 48 hrs by SRB assay relative to control; conditions: SF-268, 48 h, read-out: Activity
SK-MEL-28 = test: Growth inhibition of human SK-MEL-28 cells assessed as cell growth at 100 uM after 48 hrs by SRB assay relative to control; conditions: SK-MEL-28, 48 h, read-out: Activity
HCT-116 = test: Growth inhibition of human HCT116 cells assessed as cell growth at 100 uM after 48 hrs by SRB assay relative to control; conditions: HCT-116, 48 h, read-out: Activity
RXF 393 = test: Growth inhibition of human RXF393 cells assessed as cell growth at 0.01 uM after 48 hrs by SRB assay relative to control; conditions: RXF 393, 48 h, read-out: Activity
Hs-578T = test: Growth inhibition of human Hs 578T cells assessed as cell growth at 0.01 uM after 48 hrs by SRB assay relative to control; conditions: read-out: Activity
CCRF-CEM = test: Growth inhibition of human CCRF-CEM cells assessed as cell growth at 0.01 uM after 48 hrs by SRB assay relative to control; conditions: read-out: Activity
EKVX = test: Growth inhibition of human EKVX cells assessed as cell growth at 0.1 uM after 48 hrs by SRB assay relative to control; conditions: read-out: Activity
NCI-H460 = test: Growth inhibition of human NCI-H460 cells assessed as cell growth at 0.01 uM after 48 hrs by SRB assay relative to control; conditions: NCI-H460, 48 h, read-out: Activity
UO-31 = test: Growth inhibition of human UO31 cells assessed as cell growth at 1 uM after 48 hrs by SRB assay relative to control; conditions: UO-31, 48 h, read-out: Activity
ACHN [4] = test: Growth inhibition of human ACHN cells assessed as cell growth at 0.1 uM after 48 hrs by SRB assay relative to control; conditions: read-out: Activity
SNB-75 = test: Growth inhibition of human SNB75 cells assessed as cell growth at 0.01 uM after 48 hrs by SRB assay relative to control; conditions: SNB-75, 48 h, read-out: Activity
MDA-MB-435 = test: Growth inhibition of human MDA-MB-435 cells assessed as cell growth at 0.1 uM after 48 hrs by SRB assay relative to control; conditions: MDA-MB-435, 48 h, read-out: Activity
RPMI-8226 = test: Growth inhibition of human RPMI8226 cells assessed as cell growth at 10 uM after 48 hrs by SRB assay relative to control; conditions: RPMI-8226, 48 h, read-out: Activity

COc1ccc2c(c1)CCc1n[nH]c(-c3cc(OC)c(OC)c(OC)c3)c1-2
growth at 100 µM (SF-539): -78% | growth at 0.1 µM (MCF7): 14% | growth at 1 µM (NCI/ADR-RES): -9% | growth at 0.01 µM (HCC 2998): 15% | growth at 100 µM (HOP-62): -76% | growth at 0.1 µM (SR): 18% | growth at 0.01 µM (SK-OV-3): -1% | growth at 0.01 µM (MOLT-4): 41% | growth at 0.01 µM (SK-MEL-2): 39% | growth at 1 µM (HCT-15): 4% | GI50 (786-0; read-out: GI50): < 0.01 µM | CC50 (786-0; read-out: LC50 (the source's name)): > 100 µM | TGI (786-0; read-out: TGI): 11.5 µM | GI50 (786-0; read-out: pGI50 (converted)): < 0.01 µM | CC50 (786-0; read-out: pLC50 (the source's name) (converted)): > 100 µM | TGI (786-0; read-out: pTGI (converted)): 11.5 µM | growth at 0.01 µM (PC-3): 20% | growth at 0.01 µM (UACC-257): 47% | growth at 1 µM (M14 [1]): 4% | growth at 1 µM (MDA-MB-231): 29% | growth at 100 µM (M14 [2]): -66% | growth at 10 µM (SN12C): 24% | growth at 0.1 µM (NCI-H522): -18% | growth at 10 µM (ACHN [3]): 15% | GI50 (OVCAR-8; read-out: GI50): < 0.01 µM | LC50 (concentration killing 50% of cells) (OVCAR-8; read-out: LC50): > 100 µM | TGI (OVCAR-8; read-out: TGI): 15.4 µM | GI50 (OVCAR-8; read-out: pGI50 (converted)): < 0.01 µM | LC50 (concentration killing 50% of cells) (OVCAR-8; read-out: pLC50 (converted)): > 100 µM | TGI (OVCAR-8; read-out: pTGI (converted)): 15.5 µM | growth at 10 µM (SF-268): 18% | growth at 100 µM (SK-MEL-28): -66% | growth at 100 µM (HCT-116): -66% | growth at 0.01 µM (RXF 393): -8% | growth at 0.01 µM (Hs-578T): 14% | growth at 0.01 µM (CCRF-CEM): 38% | growth at 0.1 µM (EKVX): 53% | growth at 0.01 µM (NCI-H460): 3% | growth at 1 µM (UO-31): 28% | growth at 0.1 µM (ACHN [4]): 27% | growth at 0.01 µM (SNB-75): 12% | growth at 0.1 µM (MDA-MB-435): -39% | growth at 10 µM (RPMI-8226): 35%

Reference: ChEMBL document CHEMBL4346757, “Synthesis and biological evaluation of 7-methoxy-1-(3,4,5-trimethoxyphenyl)-4,5-dihydro-2H-benzo[e]indazoles as new colchicine site inhibitors” (Bioorg Med Chem Lett, 2019)
